The assay deals with T1, full-length human PKCι (Homo sapiens, UniProt P41743).
T1 construct: Recombinant, full-length human PKCι expressed in Sf21 insect cells is also commercially available; purchased; host or cells: Sf21 insect cells
T1 sequence (P41743 1-596): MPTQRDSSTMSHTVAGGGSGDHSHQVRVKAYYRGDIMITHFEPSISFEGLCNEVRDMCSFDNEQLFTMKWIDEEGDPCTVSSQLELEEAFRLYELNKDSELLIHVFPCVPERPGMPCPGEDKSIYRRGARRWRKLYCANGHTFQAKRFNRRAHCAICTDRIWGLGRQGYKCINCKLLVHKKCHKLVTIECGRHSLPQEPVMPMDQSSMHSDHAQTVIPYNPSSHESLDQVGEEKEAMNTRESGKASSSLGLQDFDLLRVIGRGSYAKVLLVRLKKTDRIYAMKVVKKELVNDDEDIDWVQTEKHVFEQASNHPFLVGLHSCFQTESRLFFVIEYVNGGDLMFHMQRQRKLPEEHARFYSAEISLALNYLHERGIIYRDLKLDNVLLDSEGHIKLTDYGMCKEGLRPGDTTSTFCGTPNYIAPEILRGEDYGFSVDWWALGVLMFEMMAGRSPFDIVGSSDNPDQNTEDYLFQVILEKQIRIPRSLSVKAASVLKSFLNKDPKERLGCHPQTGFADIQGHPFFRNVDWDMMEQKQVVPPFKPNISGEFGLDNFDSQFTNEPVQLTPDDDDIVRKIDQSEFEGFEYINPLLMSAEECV
Briefly: PKCι IC50 IMAP assay, full-length PKCι at 150 μM ATP. The class given is biochemical. Conditions: read-out: IC50 in IMAP assay against full length PKCi at 150 μM ATP. The method, boiled down: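 IC50 from IMAP FP (ex 485/em 530 nm) after 60 min room-temperature reaction in pH 7.5 tris buffer with 9 mM MgCl2 and 0.9 mM DTT. Enzyme: full-length Sf21-expressed PKCι (~15 pM); ATP 150 μM, five times KM^APP; FAM-labelled peptide 100 nM; DMSO 4%.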
The IC50 is the concentration that gives 50% inhibition. As for `CC1(C)CN(c2nc(-c3ccnc(Nc4nc(F)c(C5CC5)cc4F)c3)nc3cncc(C4CC4)c23)CCN1` [Example 2125, (5-Cyclopropyl-3,6-difluoro-pyridin-2-yl)-{4-[5-cyclopropyl-4-(3,3-dimethyl-piperazin-1-yl)-pyrido[3,4-d]pyrimidin-2-yl]-pyridin-2-yl}-amine], the IC50 is under 0.1 µM. Take `O=C(Nc1cc(-c2nc(N3CCNCC3)c3c(C4CC4)cncc3n2)ccn1)C(F)(F)c1ccccc1` [Example 2126, N-[4-(5-Cyclopropyl-4-piperazin-1-yl-pyrido[3,4-d]pyrimidin-2-yl)-pyridin-2-yl]-2,2-difluoro-2-phenyl-acetamide]: the IC50 is under 0.1 µM. Consider `FC1(c2cc3c(-c4nc(N5CCNCC5)c5c(C6CC6)cncc5n4)ccnc3[nH]2)CC1` [Example 2127, 5-Cyclopropyl-2-[2-(1-fluoro-cyclopropyl)-1H-pyrrolo[2,3-b]pyridin-4-yl]-4-piperazin-1-yl-pyrido[3,4-d]pyrimidine], for which the IC50 is under 0.1 µM. Regarding `CN1CCC(Sc2nc(-c3ccnc(Nc4c(F)cccc4F)c3)nc3cncc(C4CC4)c23)CC1` [Example 2128, {4-[5-Cyclopropyl-4-(1-methyl-piperidin-4-ylsulfanyl)-pyrido[3,4-d]pyrimidin-2-yl]-pyridin-2-yl}-(2,6-difluoro-phenyl)-amine], the IC50 was 0.1 to 1 µM. Turning to `CN1CCC(N(C)c2nc(-c3ccnc(Nc4ncc(F)cc4F)c3)nc3cncc(C4CC4)c23)CC1` [Example 2129, {5-Cyclopropyl-2-[2-(3,5-difluoro-pyridin-2-ylamino)-pyridin-4-yl]-pyrido[3,4-d]pyrimidin-4-yl}-methyl-(1-methyl-piperidin-4-yl)-amine], the IC50 was under 0.1 µM. With `Cn1cc(-c2ccc(Nc3cc(-c4nc(N5CCNCC5)c5c(C6CC6)cncc5n4)ccn3)c(F)c2)cn1` [Example 2130, [4-(5-Cyclopropyl-4-piperazin-1-yl-pyrido[3,4-d]pyrimidin-2-yl)-pyridin-2-yl]-[2-fluoro-4-(1-methyl-1H-pyrazol-4-yl)-phenyl]-amine], the IC50 is under 0.1 µM. With `c1ccc(Nc2cc(-c3nc(N4CC5CNCC5C4)c4c(C5CC5)cncc4n3)ccn2)cc1` (stereo not drawn) [Example 2131, {4-[5-Cyclopropyl-4-(hexahydro-pyrrolo[3,4-c]pyrrol-2-yl)-pyrido[3,4-d]pyrimidin-2-yl]-pyridin-2-yl}-phenyl-amine], the IC50 is under 0.1 µM.

Regarding `Fc1cnc(Nc2cc(-c3nc(N4CC5CNCC5C4)c4c(C5CC5)cncc4n3)ccn2)c(F)c1` (stereo not drawn) [Example 2132, {4-[5-Cyclopropyl-4-(hexahydro-pyrrolo[3,4-c]pyrrol-2-yl)-pyrido[3,4-d]pyrimidin-2-yl]-pyridin-2-yl}-(3,5-difluoro-pyridin-2-yl)-amine], the IC50 is under 0.1 µM. For `FC(F)(F)c1nc2cc(Nc3cc(-c4nc(N5CCNCC5)c5c(C6CC6)cncc5n4)ccn3)ccc2o1` [Example 2133, [4-(5-Cyclopropyl-4-piperazin-1-yl-pyrido[3,4-d]pyrimidin-2-yl)-pyridin-2-yl]-(2-trifluoromethyl-benzooxazol-5-yl)-amine] the value was under 0.1 µM.

In the case of `FC(F)(F)c1cc2c(-c3nc(SC4CCNCC4)c4c(C5CC5)cncc4n3)ccnc2[nH]1` [Example 2134, 5-Cyclopropyl-4-(piperidin-4-ylsulfanyl)-2-(2-trifluoromethyl-1H-pyrrolo[2,3-b]pyridin-4-yl)-pyrido[3,4-d]pyrimidine], the IC50 was under 0.1 µM.

Turning to `CN(c1nc(-c2ccnc3[nH]c(C(F)(F)F)cc23)nc2c(Cl)ncc(C3CC3)c12)C1CCNCC1` [Example 2136, [8-Chloro-5-cyclopropyl-2-(2-trifluoromethyl-1H-pyrrolo[2,3-b]pyridin-4-yl)-pyrido[3,4-d]pyrimidin-4-yl]-methyl-piperidin-4-yl-amine], the IC50 is under 0.1 µM. For `c1ccc2c(c1)CCC(Nc1cc(-c3nc(N4CCNCC4)c4c(C5CC5)cncc4n3)ccn1)C2` (stereo not drawn) [Example 2137, [4-(5-Cyclopropyl-4-piperazin-1-yl-pyrido[3,4-d]pyrimidin-2-yl)-pyridin-2-yl]-(1,2,3,4-tetrahydro-naphthalen-2-yl)-amine], the IC50 is under 0.1 µM. Turning to `CN(c1nc(-c2ccnc(Nc3ccc4ccccc4n3)c2)nc2cncc(C3CC3)c12)C1CCNCC1` [Example 2138, {5-Cyclopropyl-2-[2-([D4],[D3]uinolin-2-ylamino)-pyridin-4-yl]-pyrido[3,4-d]pyrimidin-4-yl}-methyl-piperidin-4-yl-amine], the IC50 is under 0.1 µM. For the compound `CN(CC1CCNCC1)c1nc(-c2ccnc3[nH]c(C(F)(F)F)cc23)nc2cncc(C3CC3)c12` [Example 2139, [5-Cyclopropyl-2-(2-trilfuoromethyl-1H-pyrrolo[2,3-b]pyridin-4-yl)-pyrido[3,4-d]pyrimidin-4-yl]-methyl-piperidin-4-ylmethyl-amine], the IC50 is under 0.1 µM.

`O[C@@H]1Cc2ccccc2[C@@H]1Nc1cc(-c2nc(N3CCNCC3)c3c(C4CC4)cncc3n2)ccn1` [Example 2140, (1S,2R)-1-[4-(5-Cyclopropyl-4-piperazin-1-yl-pyrido[3,4-d]pyrimidin-2-yl)-pyridin-2-ylamino]-indan-2-ol]: the concentration for half-maximal inhibition (IC50) was under 0.1 µM. As to `O[C@H]1Cc2ccccc2[C@@H]1Nc1cc(-c2nc(N3CCNCC3)c3c(C4CC4)cncc3n2)ccn1` [Example 2141, (1S,2S)-1-[4-(5-Cyclopropyl-4-piperazin-1-yl-pyrido[3,4-d]pyrimidin-2-yl)-pyridin-2-ylamino]-indan-2-ol], the IC50 was under 0.1 µM. In the case of `O[C@H]1Cc2ccccc2[C@H]1Nc1cc(-c2nc(N3CCNCC3)c3c(C4CC4)cncc3n2)ccn1` [Example 2142, (1R,2S)-1-[4-(5-Cyclopropyl-4-piperazin-1-yl-pyrido[3,4-d]pyrimidin-2-yl)-pyridin-2-ylamino]-indan-2-ol], the IC50 fell in the range of 0.1 to 1 µM. For `O[C@@H]1Cc2ccccc2[C@H]1Nc1cc(-c2nc(N3CCNCC3)c3c(C4CC4)cncc3n2)ccn1` [Example 2143, (1R,2R)-1-[4-(5-Cyclopropyl-4-piperazin-1-yl-pyrido[3,4-d]pyrimidin-2-yl)-pyridin-2-ylamino]-indan-2-ol] the value was under 0.1 µM.

Take `Fc1cccc(F)c1-c1cc2c(-c3nc(N4CCNCC4)c4c(C5CCC5)cncc4n3)ccnc2[nH]1` [Example 2144, 5-Cyclobutyl-2-[2-(2,6-difluoro-phenyl)-1H-pyrrolo[2,3-b]pyridin-4-yl]-4-piperazin-1-yl-pyrido[3,4-d]pyrimidine]: the IC50 was under 0.1 µM. On to `Fc1cccc(F)c1-c1cc2c(-c3nc(N4CCNCC4)c4c(C5CC5)cncc4n3)ccnc2[nH]1` [Example 2145, 5-Cyclopropyl-2-[2-(2,6-difluoro-phenyl)-1H-pyrroIo[2,3-b]pyridin-4-yl]-4-piperazin-1-yl-pyrido[3,4-d]pyrimidine], for which the concentration for half-maximal inhibition (IC50) is under 0.1 µM. With `c1cc(-c2nc(N3CCNCC3)c3c(C4CC4)cncc3n2)c2cc(C3CCC3)[nH]c2n1` [Example 2146, 2-(2-Cyclobutyl-1H-pyrrolo[2,3-b]pyridin-4-yl)-5-cyclopropyl-4-piperazin-1-yl-pyrido[3,4-d]pyrimidine], the IC50 was under 0.1 µM.

`c1cc(-c2nc(N3CCNCC3)c3c(C4CCC4)cncc3n2)c2cc(C3CCC3)[nH]c2n1` [Example 2147, 5-Cyclobutyl-2-(2-cyclobutyl-1H-pyrrolo[2,3-b]pyridin-4-yl)-4-piperazin-1-yl-pyrido[3,4-d]pyrimidine]: the IC50 is under 0.1 µM.

Consider `Fc1cnc(Nc2cc(-c3nc(N4CCNCC4)c4c(C5CC5)cnc(Cl)c4n3)ccn2)c(F)c1` [Example 2148, [4-(8-Chloro-5-cyclopropyl-4-piperazin-1-yl-pyrido[3,4-d]pyrimidin-2-yl)-pyridin-2-yl]-(3,5-difluoro-pyridin-2-yl)-amine], for which the concentration for half-maximal inhibition (IC50) is under 0.1 µM. The figure for `Cn1cnc2ccc(Nc3cc(-c4nc(N5CCNCC5)c5c(C6CC6)cncc5n4)ccn3)cc21` [Example 2149, [4-(5-Cyclopropyl-4-piperazin-1-yl-pyrido[3,4-d]pyrimidin-2-yl)-pyridin-2-yl]-(3-methyl-3H-benzoimidazol-5-yl)-amine] is under 0.1 µM. For `FC(F)(F)COc1ccc(Nc2cc(-c3nc(N4CCNCC4)c4c(C5CC5)cncc4n3)ccn2)cc1` [Example 2150, [4-(5-Cyclopropyl-4-piperazin-1-yl-pyrido[3,4-d]pyrimidin-2-yl)-pyridin-2-yl]-[4-(2,2,2-trifluoro-ethoxy)-phenyl]-amine], the 50% inhibitory concentration (IC50) was under 0.1 µM. The figure for `CN(c1nc(-c2ccnc(Nc3ncc(Cl)cc3F)c2)nc2cncc(C3CC3)c12)C1CCNCC1` [Example 2151, {2-[2-(5-Chloro-3-fluoro-pyridin-2-ylamino)-pyridin-4-yl]-5-cyclopropyl-pyrido[3,4-d]pyrimidin-4-yl}-methyl-piperidin-4-yl-amine] is under 0.1 µM; for `c1cc(-c2nc(N3CCNCC3)c3c(C4CC4)cncc3n2)c2cc(C3CCCCC3)[nH]c2n1` [Example 2152, 5-Cyclopropyl-2-(2-cyclohexyl-1H-pyrrolo[2,3-b]pyridin-4-yl)-4-piperazin-1-yl-pyrido[3,4-d]pyrimidine] it is under 0.1 µM.

The values are drawn from patent US9914730B2, “Azaquinazoline inhibitors of Atypical protein Kinase C” (Ignyta, Inc., priority 2012, dated 2018).
